Structures are written as SMILES. Read-outs that look alike come from different tables or passages of the source. Bounds are passed on as bounds.

This passage reports IC50 and melting point results from patent US8354414B2, “Substituted bicyclic pyrimidines” (Cephalon, Inc, priority 2006, dated 2013).

Data set [1] has as its target T1, CDK5/GST-p25 (Homo sapiens, UniProt Q00535).
T1 construct: The final construct, encoding for full-length human CDK5; made in house; host or cells: Sf21 insect cells (baculovirus co-infection)
The data set can be described thus: Inhibition of CDK5/GST-p25 kinase activity (ELISA with time-resolved fluorescence readout). It counts as biochemical. The essentials:
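Sf21-coexpressed full-length human CDK5 with GST-p25 (p35 aa 108-307), glutathione-purified, at 2 ng/ml was reacted for 20 min at 37 °C on plate-coated GST-Rb(773-928). Buffer was 20 mM HEPES pH 7.2, 10 µM ATP, 10 mM MgCl2 and 2.5% DMSO. Phospho-Rb Ser-780 was detected by Eu-labelled antibody TRF, and IC50 curves were fitted.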

Data set [2] concerns the target T2, His6-GSK-3β (Homo sapiens, UniProt P49841).
T2 construct: made in house; host or cells: Sf21 insect cells (baculovirus)
Kind of data set: Inhibition of His6-GSK-3β kinase activity (ELISA-based format, time-resolved fluorescence readout). It counts as biochemical. As to conditions: read-out: GSK3β IC50. An outline of the steps: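 N-terminal His6-tagged full-length human GSK-3β (aa 2-419) expressed in Sf21 cells, 200 ng/ml, phosphorylating plate-coated GST-Rb with 20 μM ATP in pH 7.2 HEPES buffer, 30 min at 37° C. Phospho-Rb (Ser-780) detected by antibody plus Eu-labelled secondary, time-resolved fluorescence; IC50 from curves.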
(In an ELISA, binding on a coated surface is turned into a signal by an enzyme label.)

T1 sequence (Q00535 whole entry): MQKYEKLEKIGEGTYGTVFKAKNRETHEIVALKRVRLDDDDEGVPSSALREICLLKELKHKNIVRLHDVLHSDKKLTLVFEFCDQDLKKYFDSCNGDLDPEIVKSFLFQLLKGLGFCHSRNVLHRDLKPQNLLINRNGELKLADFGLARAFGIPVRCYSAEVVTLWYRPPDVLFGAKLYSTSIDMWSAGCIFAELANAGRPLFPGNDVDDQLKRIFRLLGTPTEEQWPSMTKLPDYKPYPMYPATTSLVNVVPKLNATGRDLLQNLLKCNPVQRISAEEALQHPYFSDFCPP
T1 sequence (Q15078 108-307 partner limits assumed): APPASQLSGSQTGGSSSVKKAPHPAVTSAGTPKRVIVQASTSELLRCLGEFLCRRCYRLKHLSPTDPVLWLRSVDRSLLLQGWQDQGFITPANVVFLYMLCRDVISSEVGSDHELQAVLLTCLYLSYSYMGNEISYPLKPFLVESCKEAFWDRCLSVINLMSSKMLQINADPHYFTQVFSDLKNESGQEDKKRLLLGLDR
T2 sequence (P49841 2-419): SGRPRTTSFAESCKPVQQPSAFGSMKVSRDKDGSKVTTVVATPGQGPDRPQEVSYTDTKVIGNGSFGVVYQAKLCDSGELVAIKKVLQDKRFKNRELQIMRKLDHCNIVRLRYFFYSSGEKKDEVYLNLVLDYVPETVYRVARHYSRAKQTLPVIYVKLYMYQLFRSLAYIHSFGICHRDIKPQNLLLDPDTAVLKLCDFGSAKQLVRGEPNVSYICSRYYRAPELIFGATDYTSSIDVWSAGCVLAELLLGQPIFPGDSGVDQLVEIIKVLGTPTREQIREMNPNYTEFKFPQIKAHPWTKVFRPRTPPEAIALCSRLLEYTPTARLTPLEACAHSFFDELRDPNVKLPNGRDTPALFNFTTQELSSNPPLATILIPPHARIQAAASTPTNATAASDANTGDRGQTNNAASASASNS

Broadly, the IC50 is the midpoint of a concentration-inhibition curve. Broadly, the melting point is the temperature of the solid-liquid transition. `O=C1Nc2ccc(Br)cc2C1c1ncnc2c1cnn2C1CCCC1` (stereo not drawn) [Example 54, 5-Bromo-3-(1-cyclopentyl-1H-pyrazolo[3,4-d]pyrimidin-4-yl)-1,3-dihydro-indol-2-one] registered a melting point of 287 to 290 °C. Moreover, in data set [1] (numeric bounds), the 50% inhibitory concentration (IC50) was more than 3000 nM. Further, in data set [2] (class symbols), the concentration for half-maximal inhibition (IC50) was more than 10000 nM.

`COCCNc1nc(C2C(=O)Nc3ccc(Cl)cc32)c2cn(C3CCCC3)nc2n1` (stereo not drawn) [Example 277, 5-Chloro-3-[2-cyclopentyl-6-(2-methyoxy-ethylamino)-2H-pyrazolo[3,4-d]pyrimidin-4-yl]-1,3-dihydro-indol-2-one]: the melting point was in the range of 249 to 259 °C. In addition, the IC50 in data set [1] (class symbols) is less than 300 nM. Further, in data set [2] (class symbols), the IC50 was less than 300 nM.

On to `CCCn1cc2c(C3C(=O)Nc4ccc(Br)cc43)nc(Cl)nc2n1` (stereo not drawn) [Example 188, 5-Bromo-3-(6-chloro-2-propyl-2H-pyrazolo[3,4-d]pyrimidin-4-yl)-1,3-dihydro-indol-2-one], for which the melting point was more than 300 °C. Moreover, in data set [1] (class symbols), the IC50 was more than 10000 nM. Also, in data set [2] (numeric bounds), the IC50 is more than 3000 nM.

Molecule `O=C1Nc2cc(F)ccc2C1c1ncnc2c1cnn2C1CCCC1` (stereo not drawn) [Example 66, 3-(1-Cyclopentyl-1H-pyrazolo[3,4-d]pyrimidin-4-yl)-6-fluoro-1,3-dihydro-indol-2-one] showed a melting point of 230 to 233 °C. Further, in data set [1] (class symbols), the IC50 was more than 10000 nM. Further, the half-maximal inhibitory concentration (IC50) in data set [2] (numeric bounds) was more than 3000 nM.

As to `CNCCNc1nc(C2C(=O)Nc3ccc(Br)cc32)c2cn(C3CCCC3)nc2n1.Cl` (stereo not drawn) [Example 378, 5-Bromo-3-[2-cyclopentyl-6-(2-methylamino-ethylamino)-2H-pyrazolo [3,4-d]pyrimidin-4-yl]-1,3-dihydro-indol-2-one hydrochloride salt], the melting point fell in the range of 201 to 204 °C. The molecule further returned an IC50 in data set [1] (numeric bounds) of more than 3000 nM. In addition, the IC50 in data set [2] (class symbols) fell in the range of 300 to 3000 nM.

With `C=CCNc1nc(C2C(=O)Nc3ccc(C#N)cc32)c2cn(CCCCC)nc2n1` (stereo not drawn) [Example 293, 3-(6-Allylamino-2-pentyl-2H-pyrazolo[3,4-d]pyrimidin-4-yl)-2-oxo-2,3-dihydro-1H-indole-5-carbonitrile], the melting point is 265 °C (dec.). In data set [1] (class symbols), this molecule yielded an IC50 of less than 300 nM. Moreover, the IC50 in data set [2] (class symbols) was less than 300 nM.

`CCCn1cc2c(C3C(=O)Nc4ccc(Br)cc43)nc(NC[C@H](C)O)nc2n1` (stereo partly drawn) [Example 194, 5-Bromo-3-[6-((S)-2-hydroxy-propylamino)-2-propyl-2H-pyrazolo[3,4-d]pyrimidin-4-yl]-1,3-dihydro-indol-2-one] had a melting point of 322 to 326 °C. This molecule also had an IC50 in data set [1] (class symbols) of less than 300 nM. Besides, the IC50 in data set [2] (class symbols) was less than 300 nM.

`CCCn1cc2c(C3C(=O)Nc4ccc(Br)cc43)nc(NCc3cccnc3)nc2n1` (stereo not drawn) [Example 196, 5-Bromo-3-{2-propyl-6-[(pyridin-3-ylmethyl)-amino]-2H-pyrazolo[3,4-d]pyrimidin-4-yl}-1,3-dihydro-indol-2-one] had a melting point of 277 to 281 °C. In data set [1] (class symbols), this molecule gave a concentration for half-maximal inhibition (IC50) of less than 300 nM. Besides, in data set [2] (class symbols), the concentration for half-maximal inhibition (IC50) is less than 300 nM.

For `CNCCCNc1nc(C2C(=O)Nc3ccc(Br)cc32)c2cn(CC(C)C)nc2n1` (stereo not drawn) [Example 267, 5-Bromo-3-[2-isobutyl-6-(3-methylamino-propylamino)-2H-pyrazolo[3,4-d]pyrimidin-4-yl]-1,3-dihydro-indol-2-one], the melting point lay within 240 to 259 °C. The molecule also displayed an IC50 in data set [1] (class symbols) of less than 300 nM. In addition, in data set [2] (class symbols), the half-maximal inhibitory concentration (IC50) is less than 300 nM.

For `O=C1Nc2ccc(Br)cc2C1c1ncnc2nn(C3CCCC3)cc12` (stereo not drawn) [Example 31, 5-Bromo-3-(2-Cyclopentyl-2H-pyrazolo[3,4-d]pyrimidin-4-yl)-2-oxo-1,3-dihydro-indol-2-one], the melting point is 319 to 322 °C (dec.). The molecule also returned an IC50 in data set [1] (class symbols) of less than 300 nM. Also, the IC50 in data set [2] (class symbols) is less than 300 nM.

In the case of `N#Cc1cccc2c1NC(=O)C2c1ncnc2nn(C3CCCC3)cc12` (stereo not drawn) [Example 39, 3-(2-Cyclopentyl-2H-pyrazolo[3,4-d]pyrimidin-4-yl)-2-oxo-2,3-dihydro-1H-indole-7-carbonitrile], the melting point was more than 380 °C. Besides, in data set [1] (class symbols), the concentration for half-maximal inhibition (IC50) was less than 300 nM. The half-maximal inhibitory concentration (IC50) in data set [2] (class symbols) fell in the range of 300 to 3000 nM.

The molecule `CCCn1cc2c(C3C(=O)Nc4ccc(Br)cc43)nc(NCCc3ccccn3)nc2n1` (stereo not drawn) [Example 191, 5-Bromo-3-[2-propyl-6-(2-pyridin-2-yl-ethylamino)-2H-pyrazolo [3,4-d]pyrimidin-4-yl]-1,3-dihydro-indol-2-one] returned a melting point of 283 to 291 °C. Moreover, in data set [1] (class symbols), the concentration for half-maximal inhibition (IC50) was less than 300 nM. Further, the IC50 in data set [2] (class symbols) was less than 300 nM.

Molecule `N#Cc1ccc2c(c1)NC(=O)C2c1ncnc2c1cnn2C1CCCCC1` (stereo not drawn) [Example 69, 3-(1-Cyclohexyl-1H-pyrazolo[3,4-d]pyrimidin-4-yl)-2-oxo-2,3-dihydro-1H-indole-6-carbonitrile] gave a melting point of more than 300 °C. The molecule also came in with an IC50 in data set [1] (numeric bounds) of more than 3000 nM. Besides, the IC50 in data set [2] (class symbols) was more than 10000 nM.

`[N-]=[N+]=NCCCn1cc2c(C3C(=O)Nc4ccc(Br)cc43)ncnc2n1` (stereo not drawn) [Example 89, 3-[2-(3-azido-propyl)-2H-pyrazolo[3,4-d]pyrimidin-4-yl]-5-bromo-1,3-dihydro-indol-2-one] showed a melting point of 252 to 256 °C. The molecule further yielded a concentration for half-maximal inhibition (IC50) in data set [1] (class symbols) of less than 300 nM. Moreover, the IC50 in data set [2] (class symbols) is less than 300 nM.

In turn, `CCCn1cc2c(C3C(=O)Nc4ccc(Br)cc43)nc(NCc3ccncc3)nc2n1` (stereo not drawn) [Example 190, 5-Bromo-3-{2-propyl-6-[(pyridine-4-ylmethyl)-amino]-2H-pyrazolo[3,4-d]pyrimidin-4-yl}-1,3-dihydro-indol-2-one] registered a melting point of more than 300 °C. For the same molecule, in data set [1] (class symbols), the 50% inhibitory concentration (IC50) is less than 300 nM. In data set [2] (class symbols), the IC50 was less than 300 nM.

Turning to `CN(C)CCCNc1nc(C2C(=O)Nc3ccc(Br)cc32)c2cn(C)nc2n1` (stereo not drawn) [Example 307, 5-Bromo-3-[6-(3-dimethylamino-propylamino)-2-methyl-2H-pyrazolo[3,4-d]pyrimidin-4-yl]-1,3-dihydro-indol-2-one], the melting point was 310 to 312 °C (dec.). Besides, the concentration for half-maximal inhibition (IC50) in data set [1] (class symbols) was in the range of 300 to 3000 nM. The half-inhibitory concentration (IC50) in data set [2] (class symbols) is 300 to 3000 nM.

Turning to `CC(=O)NCCNc1nc(C2C(=O)Nc3ccc(C(F)(F)F)cc32)c2cn(C3CCCC3)nc2n1` (stereo not drawn) [Example 163, 3-(2-cyclopentyl-6-(2-acetylamino-ethylamino)-2H-pyrazolo [3,4-d]pyrimidin-4-yl)-5-trifluoromethyl-1,3-dihydro-indol-2-one], the melting point is more than 300 °C. Further, the IC50 in data set [1] (class symbols) was in the range of 300 to 3000 nM. Besides, in data set [2] (class symbols), the half-inhibitory concentration (IC50) was less than 300 nM.

For the molecule `CCCn1cc2c(C3C(=O)Nc4ccc(Br)cc43)nc(NCCCN)nc2n1` (stereo not drawn) [Example 199, 3-[6-(3-Amino-propylamino)-2-propyl-2H-pyrazolo [3,4-d]pyrimidin-4-yl]-5-bromo-1,3-dihydro-indol-2-one], the melting point was more than 300 °C. For the same molecule, the IC50 in data set [1] (class symbols) was less than 300 nM. In data set [2] (class symbols), the IC50 is less than 300 nM.

As to `CC(C)Cn1cc2c(C3C(=O)Nc4ccc(Cl)cc43)nc(Cl)nc2n1` (stereo not drawn) [Example 261, 5-Chloro-3-(6-chloro-2-isobutyl-2H-pyrazolo[3,4-d]pyrimidin-4-yl)-1,3-dihydro-indol-2-one], the melting point was 284 °C (dec.). The IC50 in data set [1] (class symbols) was more than 10000 nM. Also, in data set [2] (numeric bounds), the IC50 was more than 3000 nM.

For `O=C1Nc2cc(Cl)ccc2C1c1ncnc2nn(C3CCCC3)cc12` (stereo not drawn) [Example 32, 6-Chloro-3-(2-Cyclopentyl-2H-pyrazolo [3,4-d]pyrimidin-4-yl)-2-oxo-1,3-dihydro-indol-2-one], the melting point was 294 to 296 °C. The IC50 in data set [1] (class symbols) was in the range of 300 to 3000 nM. The 50% inhibitory concentration (IC50) in data set [2] (numeric bounds) was more than 3000 nM.

In the case of `O=C1Nc2ccc(F)cc2C1c1ncnc2nn(C3CCCC3)cc12` (stereo not drawn) [Example 40, 3-(2-Cyclopentyl-2H-pyrazolo[3,4-d]pyrimidin-4-yl)-5-fluoro-1,3-dihydro-indol-2-one], the melting point was 256 to 260 °C. The molecule further registered a half-maximal inhibitory concentration (IC50) in data set [1] (class symbols) of less than 300 nM. Moreover, the IC50 in data set [2] (class symbols) lay in the range of 300 to 3000 nM.

As to `CCOCCn1cc2c(C3C(=O)Nc4ccc(Cl)cc43)nc(NCc3ccncc3)nc2n1` (stereo not drawn) [Example 214, 5-Chloro-3-{2-(2-ethoxy-ethyl)-6-[(pyridine-4-ylmethyl)-amino]-2H-pyrazolo[3,4-d]pyrimidin-4-yl}-1,3-dihydro-indol-2-one], the melting point fell in the range of 298 to 299 °C. In data set [1] (class symbols), the IC50 was less than 300 nM. Also, in data set [2] (class symbols), the IC50 is less than 300 nM.

Regarding `N#Cc1ccc2c(c1)C(c1ncnc3nn(C4CCCC4)cc13)C(=O)N2` (stereo not drawn) [Example 30, 3-(2-Cyclopentyl-2H-pyrazolo[3,4-d]pyrimidin-4-yl)-2-oxo-2,3-dihydro-1H-indole-5-carbonitrile], the melting point is > 300 °C (dec.). The 50% inhibitory concentration (IC50) in data set [1] (class symbols) was less than 300 nM. For the same molecule, the IC50 in data set [2] (class symbols) was less than 300 nM.

On to `CCCn1cc2c(C3C(=O)Nc4ccc(Br)cc43)nc(NCCCN(C)C)nc2n1` (stereo not drawn) [Example 198, 5-Bromo-3-[6-(3-dimethylamino-propylamino)-2-propyl-2H-pyrazolo [3,4-d]pyrimidin-4-yl]-1,3-dihydro-indol-2-one], for which the melting point lay within 286 to 290 °C. Besides, the concentration for half-maximal inhibition (IC50) in data set [1] (class symbols) is less than 300 nM. Moreover, in data set [2] (class symbols), the half-inhibitory concentration (IC50) is less than 300 nM.

Consider `CCCn1cc2c(C3C(=O)Nc4ccc(Br)cc43)nc(NC[C@@H](C)O)nc2n1` (stereo partly drawn) [Example 195, 5-Bromo-3-[6-((R)-2-hydroxy-propylamino)-2-propyl-2H-pyrazolo [3,4-d]pyrimidin-4-yl]-1,3-dihydro-indol-2-one], for which the melting point is 310 °C (dec.). The molecule also yielded an IC50 in data set [1] (class symbols) of less than 300 nM. Also, the IC50 in data set [2] (class symbols) is less than 300 nM.
